Legend:
[1] = Inhibition of recombinant bacterial OXA-10 expressed in Escherichia coli assessed as reduction in breakdown of cephalosporin FC-5 by fluorescence method; set-up: species or system Bacteria
[2] = Inhibition of recombinant Escherichia coli OXA-10 assessed as reduction in breakdown of cephalosporin FC-5 in presence of 100 mM NaHCO3 by fluorescence method
[3] = test system: Bacteria; assay: Inhibition of bacterial expressed in Escherichia coli OXA-10 assessed as reduction in breakdown of cephalosporin FC-5 at 400 uM by fluorescence method
[4] = test system: Escherichia coli; assay: Inhibition of NDM1 in Escherichia coli S117 clinical isolate assessed as potentiation of meropenem-induced antibacterial activity by measuring meropenem MIC at 8 ug/ml by broth microdilution method (Rvb > 64 ug/ml)
[5] = test system: Escherichia coli; assay: Inhibition of NDM1 in Escherichia coli IR57 clinical isolate assessed as potentiation of meropenem-induced antibacterial activity by measuring meropenem MIC at 8 ug/ml by broth microdilution method (Rvb > 64 ug/ml)
[6] = target: Metallo-beta-lactamase type 2 (Klebsiella pneumoniae) (UniProt C7C422); assay: Inhibition of NDM1 in Klebsiella pneumoniae B64 clinical isolate assessed as potentiation of meropenem-induced antibacterial activity by measuring meropenem MIC at 8 ug/ml by broth microdilution method (Rvb > 64 ug/ml)
Sequence of Metallo-beta-lactamase type 2 (Klebsiella pneumoniae) (C7C422 whole entry): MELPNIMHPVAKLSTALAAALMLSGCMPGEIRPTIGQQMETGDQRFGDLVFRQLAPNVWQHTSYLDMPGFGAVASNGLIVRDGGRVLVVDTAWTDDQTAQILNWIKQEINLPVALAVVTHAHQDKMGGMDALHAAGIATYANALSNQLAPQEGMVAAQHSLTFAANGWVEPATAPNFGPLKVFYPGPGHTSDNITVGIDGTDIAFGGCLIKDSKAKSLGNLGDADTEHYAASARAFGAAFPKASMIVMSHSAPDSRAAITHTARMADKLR

[7] = target: Metallo-beta-lactamase type 2 (Klebsiella pneumoniae) (UniProt C7C422); assay: Inhibition of NDM1 in Klebsiella pneumoniae B68-1 clinical isolate assessed as potentiation of meropenem-induced antibacterial activity by measuring meropenem MIC at 8 ug/ml by broth microdilution method (Rvb > 64 ug/ml)
[8] = target: Metallo-beta-lactamase type 2 (Klebsiella pneumoniae) (UniProt C7C422); assay: Inhibition of NDM1 in Klebsiella pneumoniae IR43 clinical isolate assessed as potentiation of meropenem-induced antibacterial activity by measuring meropenem MIC at 8 ug/ml by broth microdilution method (Rvb > 64 ug/ml)
[9] = test system: Escherichia coli; assay: Inhibition of NDM1 in Escherichia coli 91N clinical isolate assessed as potentiation of meropenem-induced antibacterial activity by measuring meropenem MIC at 8 ug/ml by broth microdilution method (Rvb > 64 ug/ml)
[10] = Inhibition of recombinant bacterial KPC-2 expressed in Escherichia coli assessed as reduction in breakdown of cephalosporin FC-5 by fluorescence method; set-up: species or system Bacteria
[11] = Inhibition of recombinant bacterial IMP-1 expressed in Escherichia coli assessed as reduction in breakdown of cephalosporin FC-5 by fluorescence method; set-up: species or system Bacteria
[12] = Inhibition of recombinant bacterial NDM-1 expressed in Escherichia coli assessed as reduction in breakdown of cephalosporin FC-5 by fluorescence method; set-up: species or system Bacteria
[13] = Inhibition of recombinant bacterial VIM-1 expressed in Escherichia coli assessed as reduction in breakdown of cephalosporin FC-5 by fluorescence method; set-up: species or system Bacteria
[14] = Inhibition of recombinant bacterial CphA expressed in Escherichia coli assessed as reduction in hydrolysis of meropenem by UV spectrophotometeric analysis; set-up: species or system Bacteria
[15] = Inhibition of recombinant Escherichia coli OXA-48 assessed as reduction in breakdown of cephalosporin FC-5 in presence of 100 mM NaHCO3 by fluorescence method
[16] = Inhibition of recombinant Stenotrophomonas maltophilia K279a L1 expressed in Escherichia coli using FC-5 as substrate by fluorescence method

IC50 [1] [nM] | IC50 [2] [nM] | inhibition [3] [%] | MIC [4] [µg/mL] | MIC [5] [µg/mL] | MIC [6] [µg/mL] | MIC [7] [µg/mL] | MIC [8] [µg/mL] | MIC [9] [µg/mL] | Structure (SMILES) | IC50 [10] [nM] | IC50 [11] [nM] | IC50 [12] [nM] | IC50 [13] [nM] | IC50 [14] [nM] | IC50 [15] [nM] | IC50 [16]
> 400000 | > 400000 | < 50 | > 64 | > 64 | > 64 | > 64 | > 64 | > 64 | O=C(O)C[C@@H]1CC[C@H](NC(=O)Cc2cccs2)B(O)O1 [VABORBACTAM] | – | – | – | – | – | – | –
– | – | – | – | – | – | – | – | – | NCc1ccc(C(=O)N[C@H]2Cc3cccc(C(=O)O)c3OB2O)cc1 | 30 | 1000 | 29 | 85 | > 100000 | 2600 | Not Active
